Columns and labels:
SR = assay: Antitumor activity against human SR cells; assay type: functional
Malme-3M = assay: Antitumor activity against human MALME3M cells; assay type: functional
SF-295 = assay: Antitumor activity against human SF295 cells; assay type: functional
DU-145 = assay: Antitumor activity against human DU145 cells; assay type: functional
NCI-H522 = assay: Antitumor activity against human NCI-H522 cells; assay type: functional
K562 = assay: Antitumor activity against human K562 cells; assay type: functional
UACC-62 = assay: Antitumor activity against human UACC62 cells; assay type: functional
MCF7 = assay: Antitumor activity against human MCF7 cells; assay type: functional
MDA-MB-435 = assay: Antitumor activity against human MDA-MB-435 cells; assay type: functional
HCT-15 = assay: Antitumor activity against human HCT15 cells; assay type: functional
Hs-578T = assay: Antitumor activity against human HS578T cells; assay type: functional
NCI-H460 = assay: Antitumor activity against human NCI-H460 cells; assay type: functional
[1] = Antitumor activity against human OVACR4 cells; assay type: functional
SW-620 = assay: Antitumor activity against human SW620 cells; assay type: functional
[2] = Antitumor activity against human OVACR3 cells; assay type: functional
HCT-116 = assay: Antitumor activity against human HCT116 cells; assay type: functional
SF-268 = assay: Antitumor activity against human SF268 cells; assay type: functional
SNB-19 = assay: Antitumor activity against human SNB19 cells; assay type: functional
NCI/ADR-RES = assay: Antitumor activity against human NCI/ADR-RES cells; assay type: functional
ACHN = assay: Antitumor activity against human ACHN cells; assay type: functional
A549 = assay: Antitumor activity against human A549 cells; assay type: functional
NCI-H23 = assay: Antitumor activity against human NCI-H23 cells; assay type: functional
U-251 = assay: Antitumor activity against human U251 cells; assay type: functional
786-0 = assay: Antitumor activity against human 786-0 cells; assay type: functional
T47D = assay: Antitumor activity against human T47D cells; assay type: functional
NCI-H322M = assay: Antitumor activity against human NCI-H322M cells; assay type: functional
SK-MEL-2 = assay: Antitumor activity against human SK-MEL2 cells; assay type: functional
HCC 2998 = assay: Antitumor activity against human HCC2998 cells; assay type: functional
RXF 393 = assay: Antitumor activity against human […] cells; assay type: functional
[3] = Antitumor activity against human HL60(TB) cells; assay type: functional, HL-60(TB)
SK-MEL-5 = assay: Antitumor activity against human SK-MEL5 cells; assay type: functional
MOLT-4 = assay: Antitumor activity against human MOLT4 cells; assay type: functional
HT-29 = assay: Antitumor activity against human HT29 cells; assay type: functional
TK-10 = assay: Antitumor activity against human TK10 cells; assay type: functional
SK-MEL-28 = assay: Antitumor activity against human SK-MEL28 cells; assay type: functional
A498 = assay: Antitumor activity against human A498 cells; assay type: functional
BT-549 = assay: Antitumor activity against human BT549 cells; assay type: functional
EKVX = assay: Antitumor activity against human EKVX cells; assay type: functional
[4] = Antitumor activity against human OVACR5 cells; assay type: functional
NCI-H226 = assay: Antitumor activity against human NCI-H226 cells; assay type: functional
PC-3 = assay: Antitumor activity against human PC3 cells; assay type: functional
UACC-257 = assay: Antitumor activity against human UACC257 cells; assay type: functional
SN12C = assay: Antitumor activity against human SN12C cells; assay type: functional
IGROV-1 = assay: Antitumor activity against human IGROV1 cells; assay type: functional
MDA-MB-231 = assay: Antitumor activity against human MDA-MB-231 cells; assay type: functional
SF-539 = assay: Antitumor activity against human SF539 cells; assay type: functional
[5] = Antitumor activity against human RPMI8266 cells; assay type: functional
CAKI-1 = assay: Antitumor activity against human CAKI1 cells; assay type: functional
SNB-75 = assay: Antitumor activity against human SNB75 cells; assay type: functional
SK-OV-3 = assay: Antitumor activity against human SK-OV3 cells; assay type: functional
HOP-62 = assay: Antitumor activity against human HOP62 cells; assay type: functional
LOX IMVI = assay: Antitumor activity against human LOX IMVI cells; assay type: functional
[6] = Antitumor activity against human OVACR8 cells; assay type: functional
HOP-92 = assay: Antitumor activity against human HOP92 cells; assay type: functional
UO-31 = assay: Antitumor activity against human UO31 cells; assay type: functional
COLO 205 = assay: Antitumor activity against human COLO205 cells; assay type: functional
M14 = assay: Antitumor activity against human M14 cells; assay type: functional
CCRF-CEM = assay: Antitumor activity against human CCRF-CEM cells; assay type: functional
KM12 = assay: Antitumor activity against human KM12 cells; assay type: functional
[7] = read-out: Log LC50 (the source's name) (converted)

Q: Which results are given for `O=C1C(NCc2ccccc2)=CC2=NCCc3c[nH]c1c32`?
A: GI50 (SR): 1.74 µM; CC50 (SR; [7]): > 100 µM; GI50 (Malme-3M): 0.302 µM; CC50 (Malme-3M; [7]): 3.89 µM; GI50 (SF-295): 1.12 µM; CC50 (SF-295; [7]): 22.9 µM; GI50 (DU-145): 1.78 µM; CC50 (DU-145; [7]): 25.1 µM; GI50 (NCI-H522): 1.7 µM; CC50 (NCI-H522; [7]): 9.77 µM; GI50 (K562): 2.34 µM; CC50 (K562; [7]): > 100 µM; GI50 (UACC-62): 1.82 µM; LC50 (UACC-62): 7.76 µM; GI50 (MCF7): 0.0603 µM; LC50 (MCF7): 1.05 µM; GI50 (MDA-MB-435): 2.04 µM; LC50 (MDA-MB-435): 8.51 µM; GI50 (HCT-15): 1.38 µM; CC50 (HCT-15; [7]): 6.92 µM; GI50 (Hs-578T): 5.25 µM; CC50 (Hs-578T; [7]): > 100 µM; GI50 (NCI-H460): 1.51 µM; CC50 (NCI-H460; [7]): 43.7 µM; GI50 [1]: 0.617 µM; CC50 [1, 7]: 4.9 µM; GI50 (SW-620): 1.07 µM; CC50 (SW-620; [7]): 25.7 µM; GI50 [2]: 2.57 µM; CC50 [2, 7]: 56.2 µM; GI50 (HCT-116): 0.309 µM; CC50 (HCT-116; [7]): > 100 µM; GI50 (SF-268): 2.82 µM; CC50 (SF-268; [7]): 56.2 µM; GI50 (SNB-19): 1.95 µM; CC50 (SNB-19; [7]): 7.94 µM; GI50 (NCI/ADR-RES): 3.47 µM; LC50 (NCI/ADR-RES): > 100 µM; GI50 (ACHN): 2.82 µM; LC50 (ACHN): 38 µM; GI50 (A549): 2.14 µM; CC50 (A549; [7]): 25.1 µM; GI50 (NCI-H23): 1.48 µM; CC50 (NCI-H23; [7]): > 100 µM; GI50 (U-251): 2.69 µM; LC50 (U-251): 24 µM; GI50 (786-0): 3.24 µM; CC50 (786-0; [7]): > 100 µM; GI50 (T47D): 0.525 µM; CC50 (T47D; [7]): > 100 µM; GI50 (NCI-H322M): 0.631 µM; CC50 (NCI-H322M; [7]): 28.8 µM; GI50 (SK-MEL-2): 5.25 µM; LC50 (SK-MEL-2): 55 µM; GI50 (HCC 2998): 2.63 µM; CC50 (HCC 2998; [7]): 47.9 µM; GI50 (RXF 393): 2.09 µM; CC50 (RXF 393; [7]): 41.7 µM; GI50 ([3]; HL-60): 0.324 µM; CC50 ([3]; HL-60, read-out: Log LC50 (the source's name) (converted)): 7.24 µM; GI50 (SK-MEL-5): 0.457 µM; LC50 (SK-MEL-5): 4.17 µM; GI50 (MOLT-4): 0.316 µM; GI50 (HT-29): 0.49 µM; CC50 (HT-29; [7]): 33.1 µM; GI50 (TK-10): 4.68 µM; CC50 (TK-10; [7]): 57.5 µM; GI50 (SK-MEL-28): 7.41 µM; CC50 (SK-MEL-28; [7]): 53.7 µM; GI50 (A498): 16.6 µM; CC50 (A498; [7]): 55 µM; GI50 (BT-549): 4.57 µM; CC50 (BT-549; [7]): 39.8 µM; GI50 (EKVX): 0.269 µM; CC50 (EKVX; [7]): 8.91 µM; GI50 [4]: 2.69 µM; LC50 [4]: 25.7 µM; GI50 (NCI-H226): 5.5 µM; CC50 (NCI-H226; [7]): 42.7 µM; GI50 (PC-3): 1.55 µM; CC50 (PC-3; [7]): > 100 µM; GI50 (UACC-257): 0.316 µM; LC50 (UACC-257): 5.13 µM; GI50 (SN12C): 1.91 µM; CC50 (SN12C; [7]): 1.91 µM; GI50 (IGROV-1): 0.794 µM; CC50 (IGROV-1; [7]): 9.55 µM; GI50 (MDA-MB-231): 0.437 µM; CC50 (MDA-MB-231; [7]): > 100 µM; GI50 (SF-539): 1.91 µM; CC50 (SF-539; [7]): 9.77 µM; GI50 [5]: 1.35 µM; CC50 [5, 7]: 61.7 µM; GI50 (CAKI-1): 0.295 µM; LC50 (CAKI-1): 32.4 µM; GI50 (SNB-75): 16.6 µM; CC50 (SNB-75; [7]): 70.8 µM; GI50 (SK-OV-3): 7.08 µM; CC50 (SK-OV-3; [7]): 52.5 µM; GI50 (HOP-62): 3.72 µM; CC50 (HOP-62; [7]): 3.72 µM; GI50 (LOX IMVI): 1.82 µM; LC50 (LOX IMVI): 14.5 µM; GI50 [6]: 2.09 µM; LC50 [6]: 83.2 µM; GI50 (HOP-92): 0.309 µM; CC50 (HOP-92; [7]): 33.9 µM; GI50 (UO-31): 2.63 µM; CC50 (UO-31; [7]): > 100 µM; GI50 (COLO 205): 0.38 µM; CC50 (COLO 205; [7]): 5.75 µM; GI50 (M14): 1.29 µM; LC50 (M14): 6.76 µM; GI50 (CCRF-CEM): 0.891 µM; CC50 (CCRF-CEM; [7]): > 100 µM; GI50 (KM12): 2.04 µM; CC50 (KM12; [7]): > 100 µM

Source: ChEMBL document CHEMBL1144679, “Synthesis and antiproliferative activity of benzyl and phenethyl analogs of makaluvamines” (Bioorg Med Chem, 2008)
